Test results taken from the kinase profiling compilation of Christmann-Franck et al. (2016).

What was measured:
Assay in all cases: radiometric filter-binding kinase assay, Kinase HotSpot
Settings in all cases: compound 0.5 µM; ATP 10 µM
[1] = target: PRKCB1 (human) (UniProt P05771)
[2] = target: MAPKAPK5 (human) (UniProt Q8IW41)
[3] = target: PNCK (human) (UniProt Q6P2M8)
[4] = target: ACVR1B (human) (UniProt P36896)
[5] = target: ERBB2 (human) (UniProt P04626)
[6] = target: MET (human) (UniProt P08581)
[7] = target: RPS6KA3 KD1 KD2 (human) (UniProt P51812)
[8] = target: MKNK2 (human) (UniProt Q9HBH9)
Sequence of MKNK2 (human) (Q9HBH9 whole entry, looked up): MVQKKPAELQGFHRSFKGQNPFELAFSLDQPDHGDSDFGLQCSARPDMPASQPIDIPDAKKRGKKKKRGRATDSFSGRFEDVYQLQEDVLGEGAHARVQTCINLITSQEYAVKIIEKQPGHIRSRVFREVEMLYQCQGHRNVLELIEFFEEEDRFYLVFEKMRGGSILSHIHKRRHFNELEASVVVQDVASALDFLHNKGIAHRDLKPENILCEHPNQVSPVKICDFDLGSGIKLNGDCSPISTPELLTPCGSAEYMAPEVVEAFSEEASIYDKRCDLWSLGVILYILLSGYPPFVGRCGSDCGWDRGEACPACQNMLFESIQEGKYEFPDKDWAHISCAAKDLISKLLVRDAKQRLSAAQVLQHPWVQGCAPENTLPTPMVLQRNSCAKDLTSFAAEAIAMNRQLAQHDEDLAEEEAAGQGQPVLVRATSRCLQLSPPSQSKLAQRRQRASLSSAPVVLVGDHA

[9] = target: PHKG2 (human) (UniProt P15735)
[10] = target: CAMK1 (human) (UniProt Q14012)
[11] = target: STK25 (human) (UniProt O00506)
[12] = target: STK3 (human) (UniProt Q13188)
[13] = target: NEK1 (human) (UniProt Q96PY6)
[14] = target: YES1 (human) (UniProt P07947)
Sequence of YES1 (human) (P07947 whole entry, looked up): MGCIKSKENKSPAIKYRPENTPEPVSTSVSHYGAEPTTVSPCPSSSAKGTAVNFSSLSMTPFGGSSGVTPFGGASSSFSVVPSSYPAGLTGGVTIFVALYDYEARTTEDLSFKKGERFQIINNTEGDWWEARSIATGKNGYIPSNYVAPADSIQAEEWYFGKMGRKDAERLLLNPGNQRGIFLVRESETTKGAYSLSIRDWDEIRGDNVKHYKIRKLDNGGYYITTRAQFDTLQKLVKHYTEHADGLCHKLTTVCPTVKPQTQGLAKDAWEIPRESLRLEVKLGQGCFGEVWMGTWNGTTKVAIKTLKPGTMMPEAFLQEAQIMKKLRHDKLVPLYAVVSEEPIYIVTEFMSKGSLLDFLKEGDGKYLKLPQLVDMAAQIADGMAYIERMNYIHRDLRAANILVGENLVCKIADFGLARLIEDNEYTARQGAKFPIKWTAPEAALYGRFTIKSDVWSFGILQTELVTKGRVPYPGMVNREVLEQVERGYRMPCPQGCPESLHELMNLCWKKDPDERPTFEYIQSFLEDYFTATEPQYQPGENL

[15] = target: CLK2 (human) (UniProt P49760)
[16] = target: MAPK11 (human) (UniProt Q15759)
[17] = target: PAK4 (human) (UniProt O96013)
[18] = target: RET (human) (UniProt P07949)
Sequence of RET (human) (P07949 whole entry, looked up): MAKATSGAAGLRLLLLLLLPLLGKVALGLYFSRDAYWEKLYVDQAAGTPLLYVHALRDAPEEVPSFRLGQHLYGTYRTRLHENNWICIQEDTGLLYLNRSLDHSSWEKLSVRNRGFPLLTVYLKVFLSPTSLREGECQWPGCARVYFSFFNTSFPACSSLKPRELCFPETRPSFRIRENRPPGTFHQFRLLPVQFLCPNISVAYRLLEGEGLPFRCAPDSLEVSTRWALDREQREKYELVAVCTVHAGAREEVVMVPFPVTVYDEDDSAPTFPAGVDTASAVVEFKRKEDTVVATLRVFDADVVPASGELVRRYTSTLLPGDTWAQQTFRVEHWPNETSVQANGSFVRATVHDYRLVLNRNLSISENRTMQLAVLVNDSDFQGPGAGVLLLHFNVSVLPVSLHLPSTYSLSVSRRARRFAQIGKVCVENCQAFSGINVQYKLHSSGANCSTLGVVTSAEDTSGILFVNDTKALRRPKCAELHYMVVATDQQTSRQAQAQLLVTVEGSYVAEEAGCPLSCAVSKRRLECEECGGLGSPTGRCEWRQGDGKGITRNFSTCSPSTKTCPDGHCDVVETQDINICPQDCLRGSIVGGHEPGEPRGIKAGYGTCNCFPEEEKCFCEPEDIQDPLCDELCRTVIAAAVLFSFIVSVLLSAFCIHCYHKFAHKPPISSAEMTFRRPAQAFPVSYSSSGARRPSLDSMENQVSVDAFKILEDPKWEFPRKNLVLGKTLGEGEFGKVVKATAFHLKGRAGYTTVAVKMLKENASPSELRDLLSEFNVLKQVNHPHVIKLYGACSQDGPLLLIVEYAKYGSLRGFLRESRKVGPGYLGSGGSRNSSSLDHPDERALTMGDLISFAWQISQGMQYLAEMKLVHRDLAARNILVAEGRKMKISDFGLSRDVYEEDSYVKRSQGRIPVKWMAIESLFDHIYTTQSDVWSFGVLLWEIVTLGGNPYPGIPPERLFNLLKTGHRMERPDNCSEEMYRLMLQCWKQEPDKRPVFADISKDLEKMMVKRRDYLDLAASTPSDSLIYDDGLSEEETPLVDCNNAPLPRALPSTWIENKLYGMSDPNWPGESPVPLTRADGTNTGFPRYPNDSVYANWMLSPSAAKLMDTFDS

[19] = target: TYRO3 (human) (UniProt Q06418)
[20] = target: RPS6KB1 (human) (UniProt P23443)
[21] = target: MYLK2 (human) (UniProt Q9H1R3)
[22] = target: RPS6KA6 KD1 KD2 (human) (UniProt Q9UK32)
[23] = target: PRKD2 (human) (UniProt Q9BZL6)
[24] = target: CHEK1 (human) (UniProt O14757)
Sequence of CHEK1 (human) (O14757 whole entry, looked up): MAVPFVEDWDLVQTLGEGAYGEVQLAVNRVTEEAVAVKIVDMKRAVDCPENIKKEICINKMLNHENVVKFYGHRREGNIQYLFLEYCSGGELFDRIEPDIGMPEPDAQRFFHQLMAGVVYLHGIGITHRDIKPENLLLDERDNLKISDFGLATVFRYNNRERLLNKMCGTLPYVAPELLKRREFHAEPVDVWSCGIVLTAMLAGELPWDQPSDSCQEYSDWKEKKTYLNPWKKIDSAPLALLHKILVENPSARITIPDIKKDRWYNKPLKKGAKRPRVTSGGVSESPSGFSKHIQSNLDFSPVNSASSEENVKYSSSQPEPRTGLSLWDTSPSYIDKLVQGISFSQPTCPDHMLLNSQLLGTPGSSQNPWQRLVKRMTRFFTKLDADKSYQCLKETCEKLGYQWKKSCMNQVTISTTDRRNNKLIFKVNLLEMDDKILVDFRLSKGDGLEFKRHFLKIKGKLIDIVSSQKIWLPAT

[25] = target: EPHB3 (human) (UniProt P54753)
[26] = target: STK38 (human) (UniProt Q15208)
[27] = target: MST4 (human) (UniProt Q9P289)
[28] = target: PLK1 (human) (UniProt P53350)
[29] = target: EPHA3 (human) (UniProt P29320)
[30] = target: PRKCI (human) (UniProt P41743)
Sequence of PRKCI (human) (P41743 whole entry, looked up): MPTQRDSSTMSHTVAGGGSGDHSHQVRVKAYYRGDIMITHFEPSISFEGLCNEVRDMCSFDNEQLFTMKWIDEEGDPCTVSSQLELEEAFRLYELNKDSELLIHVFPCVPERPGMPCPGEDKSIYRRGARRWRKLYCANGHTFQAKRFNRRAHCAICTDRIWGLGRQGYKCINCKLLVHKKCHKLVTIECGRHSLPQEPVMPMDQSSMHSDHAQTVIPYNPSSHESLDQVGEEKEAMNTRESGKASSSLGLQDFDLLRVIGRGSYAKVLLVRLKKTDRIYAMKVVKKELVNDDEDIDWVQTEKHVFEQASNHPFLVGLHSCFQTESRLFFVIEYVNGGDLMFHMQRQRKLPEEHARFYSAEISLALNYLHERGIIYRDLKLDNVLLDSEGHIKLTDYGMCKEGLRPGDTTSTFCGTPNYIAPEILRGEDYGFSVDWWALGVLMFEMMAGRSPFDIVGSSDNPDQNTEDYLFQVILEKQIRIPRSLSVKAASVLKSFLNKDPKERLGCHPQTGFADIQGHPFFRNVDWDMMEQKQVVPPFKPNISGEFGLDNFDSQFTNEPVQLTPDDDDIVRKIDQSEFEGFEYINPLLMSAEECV

[31] = target: DAPK2 (human) (UniProt Q9UIK4)
[32] = target: AURKB (human) (UniProt Q96GD4)
[33] = target: NEK7 (human) (UniProt Q8TDX7)
[34] = target: MAPK10 (human) (UniProt P53779)
[35] = target: IRAK1 (human) (UniProt P51617)
[36] = target: MLTK (human) (UniProt Q9NYL2)
[37] = target: FGFR1 (human) (UniProt P11362)
[38] = target: GSK3B (human) (UniProt P49841)
Sequence of GSK3B (human) (P49841 whole entry, looked up): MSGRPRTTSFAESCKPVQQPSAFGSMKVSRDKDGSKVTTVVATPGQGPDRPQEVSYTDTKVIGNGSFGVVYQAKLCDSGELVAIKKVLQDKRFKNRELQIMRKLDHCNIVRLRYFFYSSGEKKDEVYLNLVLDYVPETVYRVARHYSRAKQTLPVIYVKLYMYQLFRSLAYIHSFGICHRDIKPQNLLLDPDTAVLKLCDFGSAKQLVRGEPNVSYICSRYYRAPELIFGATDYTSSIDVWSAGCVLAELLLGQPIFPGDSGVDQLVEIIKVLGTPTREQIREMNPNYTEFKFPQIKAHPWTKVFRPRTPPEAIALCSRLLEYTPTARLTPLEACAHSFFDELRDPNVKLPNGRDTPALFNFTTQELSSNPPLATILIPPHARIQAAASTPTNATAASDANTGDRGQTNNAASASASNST

[39] = target: MINK1 (human) (UniProt Q8N4C8)
[40] = target: ULK3 (human) (UniProt Q6PHR2)
Sequence of ULK3 (human) (Q6PHR2 whole entry, looked up): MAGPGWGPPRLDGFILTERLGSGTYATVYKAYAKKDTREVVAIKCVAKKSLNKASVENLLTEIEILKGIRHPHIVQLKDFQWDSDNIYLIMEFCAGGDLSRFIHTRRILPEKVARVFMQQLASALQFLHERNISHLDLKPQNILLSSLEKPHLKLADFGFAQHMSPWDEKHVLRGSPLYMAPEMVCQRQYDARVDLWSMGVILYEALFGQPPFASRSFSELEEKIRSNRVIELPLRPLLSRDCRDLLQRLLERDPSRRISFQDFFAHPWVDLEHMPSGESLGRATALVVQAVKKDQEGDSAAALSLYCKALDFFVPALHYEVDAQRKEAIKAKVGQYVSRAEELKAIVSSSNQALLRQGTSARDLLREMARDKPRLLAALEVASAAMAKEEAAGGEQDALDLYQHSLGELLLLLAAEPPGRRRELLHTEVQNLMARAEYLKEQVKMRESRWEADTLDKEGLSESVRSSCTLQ

[41] = target: MYLK (human) (UniProt Q15746)
[42] = target: IKBKE (human) (UniProt Q14164)

Sequence of MAPKAPK5 (human) (Q8IW41 whole entry, looked up): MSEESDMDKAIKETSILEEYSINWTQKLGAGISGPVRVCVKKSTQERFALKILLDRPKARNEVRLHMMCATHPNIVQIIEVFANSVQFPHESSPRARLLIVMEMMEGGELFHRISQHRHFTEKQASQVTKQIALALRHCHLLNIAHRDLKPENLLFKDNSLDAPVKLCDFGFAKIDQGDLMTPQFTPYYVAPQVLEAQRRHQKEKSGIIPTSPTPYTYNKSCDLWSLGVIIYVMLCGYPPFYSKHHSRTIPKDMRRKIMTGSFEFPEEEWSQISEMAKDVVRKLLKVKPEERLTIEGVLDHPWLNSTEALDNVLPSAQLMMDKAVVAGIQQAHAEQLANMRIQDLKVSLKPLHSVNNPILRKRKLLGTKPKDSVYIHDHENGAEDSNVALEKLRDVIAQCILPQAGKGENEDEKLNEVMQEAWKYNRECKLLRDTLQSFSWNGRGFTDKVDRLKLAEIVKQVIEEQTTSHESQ
Sequence of PNCK (human) (Q6P2M8 whole entry, looked up): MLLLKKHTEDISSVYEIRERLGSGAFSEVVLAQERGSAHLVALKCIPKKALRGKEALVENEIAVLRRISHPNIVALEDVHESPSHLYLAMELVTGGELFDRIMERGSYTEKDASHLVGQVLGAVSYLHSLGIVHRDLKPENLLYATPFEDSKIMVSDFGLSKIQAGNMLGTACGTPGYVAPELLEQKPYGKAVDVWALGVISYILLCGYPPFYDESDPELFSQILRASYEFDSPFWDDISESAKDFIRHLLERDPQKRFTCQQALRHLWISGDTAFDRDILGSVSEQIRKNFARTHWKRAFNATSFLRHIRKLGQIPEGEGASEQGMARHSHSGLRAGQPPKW

**Q.** For `O=C1NC(=O)c2c1c1c3ccccc3n3c1c1c2c2ccccc2n1C1CCC3O1`, which residual activity [1] is on record?
**A.** 22.5%

**Q.** What about the residual activity [2] of the same compound?
**A.** 80.4%

**Q.** What about the residual activity [3] of the same compound?
**A.** 50.5%

**Q.** What about the residual activity [4] of the same compound?
**A.** 113%

**Q.** What about the residual activity [5] of the same compound?
**A.** 98.4%

**Q.** What about the residual activity [6] of the same compound?
**A.** 76.9%

**Q.** What about the residual activity [7] of the same compound?
**A.** 2.35%

**Q.** What about the residual activity [8] of the same compound?
**A.** 9.71%

**Q.** And the residual activity [9]?
**A.** 75.6%

**Q.** And the residual activity [10]?
**A.** 69.7%

**Q.** What about the residual activity [11] of the same compound?
**A.** 34.4%

**Q.** And the residual activity [12]?
**A.** 3.22%

**Q.** And the residual activity [13]?
**A.** 50.9%

**Q.** And the residual activity [14]?
**A.** 31.9%

**Q.** What about the residual activity [15] of the same compound?
**A.** 52.1%

**Q.** What about the residual activity [16] of the same compound?
**A.** 108%

**Q.** And the residual activity [17]?
**A.** 75.3%

**Q.** What about the residual activity [18] of the same compound?
**A.** 3.21%

**Q.** And the residual activity [19]?
**A.** 55.3%

**Q.** What about the residual activity [20] of the same compound?
**A.** 2.38%

**Q.** What about the residual activity [21] of the same compound?
**A.** 7.76%

**Q.** And the residual activity [22]?
**A.** 1.08%

**Q.** What about the residual activity [23] of the same compound?
**A.** 2.02%

**Q.** What about the residual activity [24] of the same compound?
**A.** 3.63%

**Q.** And the residual activity [25]?
**A.** 93.2%

**Q.** And the residual activity [26]?
**A.** 46.2%

**Q.** What about the residual activity [27] of the same compound?
**A.** 20.5%

**Q.** And the residual activity [28]?
**A.** 50.2%

**Q.** And the residual activity [29]?
**A.** 96.5%

**Q.** And the residual activity [30]?
**A.** 86.4%

**Q.** And the residual activity [31]?
**A.** 39.4%

**Q.** What about the residual activity [32] of the same compound?
**A.** 9.52%

**Q.** What about the residual activity [33] of the same compound?
**A.** 99.1%

**Q.** What about the residual activity [34] of the same compound?
**A.** 138%

**Q.** What about the residual activity [35] of the same compound?
**A.** 37.5%

**Q.** And the residual activity [36]?
**A.** 89.7%

**Q.** What about the residual activity [37] of the same compound?
**A.** 29.1%

**Q.** What about the residual activity [38] of the same compound?
**A.** 4.6%

**Q.** And the residual activity [39]?
**A.** 0.901%

**Q.** What about the residual activity [40] of the same compound?
**A.** 33%

**Q.** What about the residual activity [41] of the same compound?
**A.** 4.01%

**Q.** And the residual activity [42]?
**A.** 23.9%
